Data from patent US9695155B2, “Herbicidal substituted pyrimidinyloxy benzene compounds” (E. I. DU PONT DE NEMOURS AND COMPANY, priority 2013, dated 2017).

Key:
[1] = tested on: rice; assay: Test C flooded paddy test; type: in vivo, Oryza sativa; details: Flood, scale 0 to 100 (0 no effect, 100 complete control), 13 to 15 days
Summary of the method: (§1)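 Pots were flooded to 3 cm above the soil surface at treatment, compound applied directly to the paddy water, and that depth held throughout. Plants were kept in a greenhouse for 13 to 15 days, then visually rated against untreated controls.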

[2] = tested on: sedge, umbrella; assay: Test C flooded paddy test; type: in vivo, Cyperus difformis; details: Flood, scale 0 to 100 (0 no effect, 100 complete control), 13 to 15 days
Summary of the method: as §1

[3] = tested on: corn; assay: Test E preemergence; type: in vivo, Zea mays; details: for Corn plant response rating: scale 0 to 100 (0 no effect, 100 complete control); for Plant response rating, Corn: scale 0 to 100, 0 no effect, 100 complete control
Summary of the method: (§2)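 Compound in a non-phytotoxic solvent mixture with surfactant was applied preemergence to seeds in silt loam soil, or postemergence to plants 2 to 18 cm tall grown in peat-based potting medium. Plants were kept in a greenhouse for 14 to 21 days, then rated visually against untreated controls on a 0 (no effect) to 100 (complete control) scale.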

[4] = tested on: velvetleaf; assay: Test E preemergence; type: in vivo, Abutilon theophrasti; details: for Velvetleaf plant response rating: scale 0 to 100 (0 no effect, 100 complete control); for Plant response rating, Velvetleaf: scale 0 to 100, 0 no effect, 100 complete control
Summary of the method: as §2

[5] = tested on: lambsquarters; assay: Test E preemergence; type: in vivo, Chenopodium album; details: for Lambsquarters plant response rating: scale 0 to 100 (0 no effect, 100 complete control); for Plant response rating, Lambsquarters: scale 0 to 100, 0 no effect, 100 complete control
Summary of the method: as §2

[6] = tested on: palmer pigweed; assay: Test E preemergence; type: in vivo, Amaranthus palmeri; details: for Pigweed, Palmer plant response rating: scale 0 to 100 (0 no effect, 100 complete control); for Plant response rating, Pigweed, Palmer: scale 0 to 100, 0 no effect, 100 complete control
Summary of the method: as §2

[7] = tested on: waterhemp; assay: Test E preemergence; type: in vivo, Amaranthus rudis; details: for Waterhemp plant response rating: scale 0 to 100 (0 no effect, 100 complete control); for Plant response rating, Waterhemp: scale 0 to 100, 0 no effect, 100 complete control
Summary of the method: as §2

[8] = tested on: Brazilian crabgrass; assay: Test E preemergence; type: in vivo, Digitaria horizontalis; details: for Crabgrass, Brazil plant response rating: scale 0 to 100 (0 no effect, 100 complete control); for Plant response rating, Crabgrass, Brazil: scale 0 to 100, 0 no effect, 100 complete control
Summary of the method: as §2

[9] = tested on: johnsongrass; assay: Test E preemergence; type: in vivo, Sorghum halepense; details: for Johnsongrass plant response rating: scale 0 to 100 (0 no effect, 100 complete control); for Plant response rating, Johnsongrass: scale 0 to 100, 0 no effect, 100 complete control
Summary of the method: as §2

[10] = tested on: arrowleaf sida; assay: Test E preemergence; type: in vivo, Sida rhombifolia; details: for Arrowleaf Sida plant response rating: scale 0 to 100 (0 no effect, 100 complete control); for Plant response rating, Arrowleaf Sida: scale 0 to 100, 0 no effect, 100 complete control
Summary of the method: as §2

[11] = tested on: field bindweed; assay: Test E preemergence; type: in vivo, Convolvulus arvensis; details: for Field Bindweed plant response rating: scale 0 to 100 (0 no effect, 100 complete control); for Plant response rating, Field Bindweed: scale 0 to 100, 0 no effect, 100 complete control
Summary of the method: as §2

[12] = tested on: yellow nutsedge; assay: Test E preemergence; type: in vivo, Cyperus esculentus; details: for Nutsedge, Yellow plant response rating: scale 0 to 100 (0 no effect, 100 complete control); for Plant response rating, Nutsedge, Yellow: scale 0 to 100, 0 no effect, 100 complete control
Summary of the method: as §2

[13] = tested on: kochia; assay: Test A preemergence; type: in vivo, Kochia scoparia
Summary of the method: (§3)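 Injury scores run from 0, no effect, to 100, complete control, judged by eye against untreated plants roughly 10 days after treatment. Chemicals carried a surfactant in a non-phytotoxic solvent and went onto loam–sand soil preemergence or onto one- to two-leaf seedlings postemergence.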

[14] = tested on: Italian ryegrass; assay: Test A preemergence; type: in vivo, Lolium multiflorum
Summary of the method: as §3

[15] = tested on: blackgrass; assay: Test A postemergence; type: in vivo, Alopecurus myosuroides; details: 0 to 100 scale, 0 no effect, 100 complete control
Summary of the method: as §3

[16] = 31 g ai/ha, 0 to 100 scale where 0 is no effect and 100 is complete control, visual, approximately 10 days

N#Cc1cccc(Oc2ncc(Br)cn2)c1-n1cc(C(F)(F)F)cn1 [Compound 59, 3-[(5-bromo-2-pyrimidinyl)oxy]-2-[4-(trifluoromethyl)-1H-pyrazol-1-yl]benzonitrile]
Plant response rating, Rice ([1]; 31 g ai/ha): 0 | Plant response rating, Rice ([1]; 62 g ai/ha): 15 | Plant response rating, Rice ([1]; 125 g ai/ha): 20 | Plant response rating, Rice ([1]; 250 g ai/ha): 20 | Plant response rating, Sedge, Umbrella ([2]; 31 g ai/ha): 60 | Plant response rating, Sedge, Umbrella ([2]; 62 g ai/ha): 80 | Plant response rating, Sedge, Umbrella ([2]; 125 g ai/ha): 90 | Plant response rating, Sedge, Umbrella ([2]; 250 g ai/ha): 95 | Corn plant response rating ([3]; 16 g ai/ha): 0 | Corn plant response rating ([3]; 31 g ai/ha): 0 | Corn plant response rating ([3]; 62 g ai/ha): 0 | Plant response rating, Corn ([3]; 125 g ai/ha): 30 | Plant response rating, Corn ([3]; 250 g ai/ha): 50 | Velvetleaf plant response rating ([4]; 16 g ai/ha): 0 | Velvetleaf plant response rating ([4]; 31 g ai/ha): 25 | Velvetleaf plant response rating ([4]; 62 g ai/ha): 75 | Plant response rating, Velvetleaf ([4]; 125 g ai/ha): 100 | Plant response rating, Velvetleaf ([4]; 250 g ai/ha): 100 | Lambsquarters plant response rating ([5]; 16 g ai/ha): 98 | Lambsquarters plant response rating ([5]; 31 g ai/ha): 98 | Lambsquarters plant response rating ([5]; 62 g ai/ha): 100 | Plant response rating, Lambsquarters ([5]; 125 g ai/ha): 100 | Plant response rating, Lambsquarters ([5]; 250 g ai/ha): 100 | Pigweed, Palmer plant response rating ([6]; 16 g ai/ha): 35 | Pigweed, Palmer plant response rating ([6]; 31 g ai/ha): 100 | Pigweed, Palmer plant response rating ([6]; 62 g ai/ha): 100 | Plant response rating, Pigweed, Palmer ([6]; 125 g ai/ha): 100 | Plant response rating, Pigweed, Palmer ([6]; 250 g ai/ha): 100 | Waterhemp plant response rating ([7]; 16 g ai/ha): 100 | Waterhemp plant response rating ([7]; 31 g ai/ha): 100 | Waterhemp plant response rating ([7]; 62 g ai/ha): 100 | Plant response rating, Waterhemp ([7]; 125 g ai/ha): 100 | Plant response rating, Waterhemp ([7]; 250 g ai/ha): 100 | Crabgrass, Brazil plant response rating ([8]; 16 g ai/ha): 80 | Crabgrass, Brazil plant response rating ([8]; 31 g ai/ha): 100 | Crabgrass, Brazil plant response rating ([8]; 62 g ai/ha): 100 | Plant response rating, Crabgrass, Brazil ([8]; 125 g ai/ha): 100 | Plant response rating, Crabgrass, Brazil ([8]; 250 g ai/ha): 100 | Johnsongrass plant response rating ([9]; 16 g ai/ha): 0 | Johnsongrass plant response rating ([9]; 31 g ai/ha): 0 | Johnsongrass plant response rating ([9]; 62 g ai/ha): 60 | Plant response rating, Johnsongrass ([9]; 125 g ai/ha): 75 | Plant response rating, Johnsongrass ([9]; 250 g ai/ha): 100 | Arrowleaf Sida plant response rating ([10]; 16 g ai/ha, preemergence): 50 | Arrowleaf Sida plant response rating ([10]; 31 g ai/ha, preemergence): 50 | Plant response rating, Arrowleaf Sida ([10]; Preemergence, 62 g ai/ha): 75 | Plant response rating, Arrowleaf Sida ([10]; preemergence, 125 g ai/ha): 100 | Plant response rating, Arrowleaf Sida ([10]; preemergence, 250 g ai/ha): 100 | Field Bindweed plant response rating ([11]; 16 g ai/ha): 0 | Field Bindweed plant response rating ([11]; 31 g ai/ha): 5 | Field Bindweed plant response rating ([11]; 62 g ai/ha): 60 | Plant response rating, Field Bindweed ([11]; 125 g ai/ha): 60 | Plant response rating, Field Bindweed ([11]; 250 g ai/ha): 100 | Nutsedge, Yellow plant response rating ([12]; 16 g ai/ha): 0 | Nutsedge, Yellow plant response rating ([12]; 31 g ai/ha): 0 | Nutsedge, Yellow plant response rating ([12]; 62 g ai/ha): 0 | Plant response rating, Nutsedge, Yellow ([12]; 125 g ai/ha): 30 | Plant response rating, Nutsedge, Yellow ([12]; 250 g ai/ha): 50

FCc1cccc(Oc2ncc(Cl)cn2)c1-n1cc(Cl)cn1 [Compound 250]
Plant response rating, Kochia [13, 16]: 90 | Kochia plant response rating (0 to 100 scale) ([13]; 125 g ai/ha): 0 | Plant response rating, Ryegrass, Italian [14, 16]: 0 | Ryegrass, Italian plant response rating (0 to 100 scale) ([14]; 125 g ai/ha): 0 | Plant response rating, Blackgrass ([15]; 31 g ai/ha): 70 | Plant response rating, Blackgrass ([15]; 125 g ai/ha): 100 | Corn plant response rating ([3]; 16 g ai/ha): 0 | Corn plant response rating ([3]; 31 g ai/ha): 0 | Corn plant response rating ([3]; 62 g ai/ha): 0 | Plant response rating, Corn ([3]; 125 g ai/ha): 20 | Velvetleaf plant response rating ([4]; 31 g ai/ha): 75 | Velvetleaf plant response rating ([4]; 62 g ai/ha): 75 | Plant response rating, Velvetleaf ([4]; 125 g ai/ha): 100 | Lambsquarters plant response rating ([5]; 31 g ai/ha): 0 | Lambsquarters plant response rating ([5]; 62 g ai/ha): 0 | Plant response rating, Lambsquarters ([5]; 125 g ai/ha): 100 | Pigweed, Palmer plant response rating ([6]; 31 g ai/ha): 0 | Pigweed, Palmer plant response rating ([6]; 62 g ai/ha): 0 | Plant response rating, Pigweed, Palmer ([6]; 125 g ai/ha): 100 | Waterhemp plant response rating ([7]; 31 g ai/ha): 0 | Waterhemp plant response rating ([7]; 62 g ai/ha): 0 | Plant response rating, Waterhemp ([7]; 125 g ai/ha): 100 | Crabgrass, Brazil plant response rating ([8]; 16 g ai/ha): 0 | Crabgrass, Brazil plant response rating ([8]; 31 g ai/ha): 0 | Crabgrass, Brazil plant response rating ([8]; 62 g ai/ha): 5 | Plant response rating, Crabgrass, Brazil ([8]; 125 g ai/ha): 98 | Johnsongrass plant response rating ([9]; 31 g ai/ha): 0 | Johnsongrass plant response rating ([9]; 62 g ai/ha): 0 | Plant response rating, Johnsongrass ([9]; 125 g ai/ha): 50 | Arrowleaf Sida plant response rating ([10]; 16 g ai/ha, preemergence): 0 | Arrowleaf Sida plant response rating ([10]; 31 g ai/ha, preemergence): 20 | Arrowleaf Sida plant response rating ([10]; 62 g ai/ha, preemergence): 60 | Plant response rating, Arrowleaf Sida ([10]; preemergence, 125 g ai/ha): 100 | Field Bindweed plant response rating ([11]; 16 g ai/ha): 0 | Field Bindweed plant response rating ([11]; 31 g ai/ha): 0 | Field Bindweed plant response rating ([11]; 62 g ai/ha): 0 | Plant response rating, Field Bindweed ([11]; 125 g ai/ha): 0 | Nutsedge, Yellow plant response rating ([12]; 31 g ai/ha): 0 | Nutsedge, Yellow plant response rating ([12]; 62 g ai/ha): 0 | Plant response rating, Nutsedge, Yellow ([12]; 125 g ai/ha): 40
